Non-standard residues stand in square brackets, D forms with d. Residues, ends and D or L forms follow the SMILES beside them.
Tests used:
[1] = tested on: AII-stimulated contraction of isolated rabbit aorta strips; assay: Peptide effect on AII-stimulated contraction of arterial muscle strips; format: cell-based; details: AII 10^-9 M
Procedure: (§1) The peptides of this invention were tested in vitro, using an assay of isolated rabbit aorta strips mounted in a muscle bath.
(§2) Strips were mounted vertically on a glass holder in a tissue bath containing 50 ml of PSS. The upper end of each strip was connected to a force transducer. The bathing medium was maintained at 37° C. and aerated with a mixture of 95% O2 -5% CO2. The pH of the PSS was 7.2 and the composition, in mmoles/l, was as follows: NaCl 130, KCl 14.7, KH2 PO4 1.18, MgSO4 7H2 O 1.17, CaCl2 -2H2 O 1.6, […] 14.9, dextrose 5.5, and CaNa2 EDTA 0.03. In all experiments, the passive force on each strip was adjusted to 2,000 mg.
In another set of experiments, the ability of peptides to increase or decrease contraction caused by angiotensin II was measured.
The muscle strips were bathed in PSS containing AII, 10^-9 M. Strips were allowed to contract until a steady-state contraction was reached (^~8 minutes), then peptide was added in a step-wise. cumulative manner. The change in muscle strip contraction was measured after each addition of peptide, and more peptide was not added until contraction had stabilized from the previous peptide addition (10-15 minutes). Each peptide was tested in strips from 2 or 4 rabbits.
A positive value indicates increased contraction, while a negative value represents a decreased contractile response.

dog femoral vein = assay: Angiotensin II-caused relaxation of isolated dog venous strips; format: cell-based; details: angiotensin II 3×10^-7 M
Procedure: Peptide 2 of this invention was tested in vitro, using an assay of isolated dog venous strips mounted in a muscle bath. Isolated segments of the dog femoral vein (n=2) were mounted in organ baths for measurement of isometric force generation. The conditions were as described in Example 3. The vascular segments were made to contract in response to prostaglandin F2a (8.5×10^-7 M). After the contraction reached a plateau, angiotensin II (3×10^-7 M) was added to the organ bath and the venous segments relaxed to approximately 50% of the response to prostaglandin F2a. This relaxation response to angiotensin II was inhibited 100% by saralasin ([…]) and by Peptide 2 (10^-5 M).

rat hypertension model = assay: Blood pressure in anesthetized rats (rat hypertension model); format: in vivo
Procedure: Peptide 2 of this invention was tested in vivo, using a rat hypertension model. Adult male rats (n=4) were anesthetized with sodium pentobarbital (50 mg/kg) and the left jugular vein was cannulated for infusion of drugs. Bolus injections of angiotensin II were delivered via the same venous catheter. The right carotid artery was cannulated for measurement of blood pressure. Injection of angiotensin II (1 ng) caused an increase in mean arterial blood pressure (^~ 50 mm Hg).

[2] = tested on: isolated rabbit aorta strips; assay: Contractile response of isolated arterial smooth muscle strips in muscle bath; format: cell-based; details: cumulative addition
Procedure: as §1
as §2, with “The left anterior descending coronary artery was excised from the heart and cut helically into a strip under a dissecting microscope. Strips” for “Strips”
In one set of experiments, peptides were tested for ability to stimulate contractile response. Peptide was added to the bath in a step-wise, cumulative manner. Three peptides were tested: angiotensin II., Peptide 2 and Peptide 5. Muscle strips from between 2 and 6 rabbits were used to test each peptide.

angiotensin II receptors = assay: Inhibition of radiolabeled angiotensin II binding to isolated hepatic receptor; parameters: species or system rabbit; details: for ID50 (concentration of peptide that inhibited binding of radiolabeled angiotensin II by 50%): 0.25 nM [125I]angiotensin II, partially purified solubilized rabbit liver receptor, 60 minutes at 20° C.
Procedure: Inhibition of angiotensin II binding to angiotensin II receptors by peptides of this invention was measured through the use of radioactive angiotensin II. Rabbit livers were homogenized and centrifuged in order to isolate particles sedimenting between 1,000 and 100,000×g. A portion of the particles which binds angiotensin II was solubilized with 1% digitonin, followed by ammonium sulfate fractionation between 49 and 65% saturation, followed by DEAE-cellulose chromatography at pH 7.5 using a linear gradient between 0.0 and 0.3 M KCl. The partially purified, solubilized receptor preparation bound 17 pmoles of angiotensin II per mg of protein when analyzed by Scatchard analysis, indicating a purity of approximately 0.1%.
The assay for binding of angiotensin II to the receptor was as follows: The complete system (150 μl) contained 30 mM Tris-HCl, pH 7.5, 2.5 mM K2 EDTA, 0.2 mM PCMS, 0.25 nM [^125 I]angiotensin II (ca. 100,000 cpm), 100 μg BSA, 0.25% (v/v) Brij 99 (a polyoxyethylene ether of a fatty alcohol) and 30 μg of partially purified receptor. The reaction was initiated by addition of the receptor and samples were incubated for 60 minutes at 20° C. The reaction was terminated with 1 ml of cold 0.5% charcoal/0.05% dextran in 100 mM Tris-HCl, pH 7.5. Tubes were vortexed and then allowed to stand 10 minutes at 4° C., after which they were centrifuged and their supernatants, containing protein-bound angiotensin II, were counted.
The complete system under these conditions regularly yields about 10,000 cpm of bound radioactivity. […] A sample including 20 nM cold angiotensin II was also run. Residual binding of radioactivity in this control was 35-45%. Certain peptides of this invention were dissolved in water, except for Peptide 5, which was dissolved in 3% DMSO, 0.04 M acetic acid, and 0.05 M HCl in water.

[3] = tested on: isolated rabbit aorta strips; assay: Saralasin block of AII contraction and peptide-stimulated contraction in muscle strips; format: cell-based; details: saralasin 10^-8 M; AII 10^-9 M

Q: What does the source list for `CC[C@H](C)[C@H](NC(=O)[C@H](Cc1ccc(O)cc1)NC(=O)[C@@H](NC(=O)CNC(=O)[C@@H](N)CCCCN)C(C)C)C(=O)N[C@@H](Cc1c[nH]cn1)C(=O)N[C@@H](C)C(=O)N[C@@H](CC(C)C)C(=O)O` [Peptide 2, NH2LYSGLYVALTYRILEHISALALEUCOOH] (H-KGVYIHAL-OH)?
A: % Change from AII Response ([1]; peptide 3 × 10^-5 M): -73%; % Change from AII Response ([1]; peptide 3 × 10^-6 M): 0%; % Change from AII Response ([1]; peptide 10^-4 M): -83%; % Change from AII Response ([1]; peptide 10^-5 M): -18%; % Change from AII Response ([1]; peptide 10^-6 M): 0%; Inhibition of relaxation response to angiotensin II (dog femoral vein; 10^-5 M): 100%; Effect on baseline blood pressure (rat hypertension model; infusion 0.1 to 0.5 mg/min): did not alter baseline blood pressure; Effect on pressor responses to angiotensin II (rat hypertension model; infusion 0.1 to 0.5 mg/min, angiotensin II 1 ng): did not influence pressor responses to angiotensin II; Average Baseline Response ([2]; 3 × 10^-7 M): 0 mg; Average Baseline Response ([2]; 3 × 10^-8 M): 0 mg; Average Baseline Response ([2]; 3 × 10^-9 M): 0 mg; Average Baseline Response ([2]; 3 × 10^-10 M): 0 mg; Average Baseline Response ([2]; 10^-6 M): 0 mg; Average Baseline Response ([2]; 10^-7 M): 0 mg; Average Baseline Response ([2]; 10^-8 M): 0 mg; Average Baseline Response ([2]; 10^-9 M): 0 mg; ID50 (concentration of peptide that inhibited binding of radiolabeled angiotensin II by 50%) (angiotensin II receptors): 8 to 14 nM

Q: How did the “ID50 (concentration of peptide that inhibited binding of radiolabeled angiotensin II by 50%)” value (angiotensin II receptors) turn out when `CC[C@H](C)[C@H](NC(=O)[C@H](Cc1ccc(O)cc1)NC(=O)[C@@H](NC(=O)CNC(=O)[C@H](CCCCN)NC(C)=O)C(C)C)C(=O)N[C@@H](Cc1c[nH]cn1)C(=O)N[C@@H](C)C(=O)N[C@@H](CC(C)C)C(N)=O` [Peptide 9] (Ac-KGVYIHAL-NH2) was run?
A: 2,400-3,100 nM

Q: `CSCC[C@H](NC(=O)[C@H](CC(=O)O)NC(=O)[C@@H](NC(=O)CNC(=O)[C@@H](N)CCCCN)C(C)C)C(=O)N[C@@H](Cc1c[nH]cn1)C(=O)N[C@@H](C)C(=O)N[C@@H](CC(C)C)C(=O)O` [Peptide 3, NH2LYSGLYVALASPMETHISALALEUCOOH] (H-KGVDMHAL-OH) was tested. Which “ID50 (concentration of peptide that inhibited binding of radiolabeled angiotensin II by 50%)” value (angiotensin II receptors) did it give?
A: 5,000 nM

Q: With `CSCC[C@H](NC(=O)[C@H](Cc1ccc(O)cc1)NC(=O)[C@@H](NC(=O)CNC(=O)[C@@H](N)CCCCN)C(C)C)C(=O)N[C@@H](Cc1c[nH]cn1)C(=O)N[C@@H](CO)C(=O)N[C@@H](CC(C)C)C(=O)O` [Peptide 13, NH2LYSGLYVALTYRMETHISSERLEUCOOH] (H-KGVYMHSL-OH) as the compound, how does the “ID50 (concentration of peptide that inhibited binding of radiolabeled angiotensin II by 50%)” value (angiotensin II receptors) read?
A: 6 nM

Q: For `CNCC(=O)N[C@@H](CCCN=C(N)N)C(=O)N[C@H](C(=O)N[C@@H](Cc1ccc(O)cc1)C(=O)N[C@H](C(=O)N[C@@H](Cc1cnc[nH]1)C(=O)N1CCC[C@H]1C(=O)N[C@@H](C)C(=O)O)C(C)C)C(C)C` [saralasin], which “Inhibition of relaxation response to angiotensin II” value (dog femoral vein; 10^6 M (so in the source)) is on record?
A: 100%

Q: And the “Effect on pressor activity of angiotensin II” value (rat hypertension model; constant infusion 1 mg/min, angiotensin II 1 ng)?
A: inhibited the pressor activity of angiotensin II

Q: What about the “Effect on AII contraction” value [3] of the same compound?
A: decreased AII contraction

Q: For `CC(C)[C@H](NC(=O)[C@H](C)NC(=O)[C@H](Cc1ccc(O)cc1)NC(=O)[C@@H](NC(=O)[C@H](CC(=O)O)NC(=O)[C@@H](NC(=O)CNC(=O)[C@@H](N)CCCCN)C(C)C)C(C)C)C(=O)O` [Peptide 1, NH2 - LYS-GLY-VAL-ASP-VAL-TYR-ALA-VAL-COOH] (H-KGVDVYAV-OH), which “ID50 (concentration of peptide that inhibited binding of radiolabeled angiotensin II by 50%)” value (angiotensin II receptors) is on record?
A: 4,000 nM

Q: How did the “Relaxation of venous segments, as % of the response to prostaglandin F2a” value (dog femoral vein; prostaglandin F2a 8.5×10^-7 M) turn out when “Angiotensin II (DRVYIHPF; Angiotensin-2; UniProt P01019 25-32, looked up) [an octapeptide formed from angiotensin I by angiotensin converting enzyme; causes blood vessel constriction, reference compound]” was run?
A: approximately 50%

Q: What about the “Increase in mean arterial blood pressure” value (rat hypertension model; bolus injection 1 ng, jugular vein, anesthetized rats) of the same compound?
A: ~ 50 mm Hg

Q: What about the “Average Baseline Response” value ([2]; 3 × 10^-8 M) of the same compound?
A: 2,613 mg

Q: And the “Average Baseline Response” value ([2]; 3 × 10^-9 M)?
A: 2,332 mg

Q: What about the “Average Baseline Response” value ([2]; 3 × 10^-10 M) of the same compound?
A: 991 mg

Q: What about the “Average Baseline Response” value ([2]; 3 × 10^-11 M) of the same compound?
A: 0 mg

Q: What about the “Average Baseline Response” value ([2]; 10^-8 M) of the same compound?
A: 2,562 mg

Q: And the “Average Baseline Response” value ([2]; 10^-9 M)?
A: 1,726 mg

Q: And the “Average Baseline Response” value ([2]; 10^-10 M)?
A: 0 mg

Q: What about the “Average Baseline Response” value ([2]; 10^-11 M) of the same compound?
A: 0 mg

Q: And the “ID50 (concentration of peptide that inhibited binding of radiolabeled angiotensin II by 50%)” value (angiotensin II receptors)?
A: 12 to 15 nM

Q: And the “Residual binding of radioactivity” value (angiotensin II receptors; 20 nM cold angiotensin II)?
A: 35-45%

Q: Which results are given for `CC[C@@H](C)[C@@H](NC(=O)[C@@H](Cc1ccc(O)cc1)NC(=O)[C@H](NC(=O)CNC(=O)[C@H](N)CCCCN)C(C)C)C(=O)N[C@H](Cc1c[nH]cn1)C(=O)N[C@H](C)C(=O)N[C@H](CC(C)C)C(=O)O` [Peptide 11, NH2LYSGLYVALTYRILEHISALALEUCOOH] (H-[dK]G[dV][dY][dI][dH][dA][dL]-OH)?
A: % Change from AII Response ([1]; peptide 3 × 10^-5 M): -7%; % Change from AII Response ([1]; peptide 3 × 10^-6 M): -3%; % Change from AII Response ([1]; peptide 10^-4 M): -33%; % Change from AII Response ([1]; peptide 10^-5 M): -5%; % Change from AII Response ([1]; peptide 10^-6 M): 0%; ID50 (concentration of peptide that inhibited binding of radiolabeled angiotensin II by 50%) (angiotensin II receptors): > 10,000 nM

Q: Which “ID50 (concentration of peptide that inhibited binding of radiolabeled angiotensin II by 50%)” value (angiotensin II receptors) does the source give for `CC[C@H](C)[C@H](NC(=O)[C@H](Cc1ccc(O)cc1)NC(=O)[C@@H](NC(=O)CNC(=O)[C@@H](N)CCCCN)C(C)C)C(=O)N[C@@H](Cc1c[nH]cn1)C(=O)N[C@@H](C)C(=O)N[C@@H](CC(C)C)C(N)=O` [Peptide 7, NH2LYSGLYVALTYRILEHISALALEUCONH2] (H-KGVYIHAL-NH2) here?
A: 40 to 160 nM

Q: With `CC(C)[C@H](NC(=O)[C@@H]1CCCN1C(=O)[C@H](Cc1c[nH]cn1)NC(=O)[C@@H](NC(=O)[C@H](CC(=O)O)NC(=O)[C@@H](NC(=O)CNC(=O)[C@@H](N)CCC(N)=O)C(C)C)C(C)C)C(=O)O` [Peptide 12, NH2GLNGLYVALASPVALHISPROVALCOOH] (H-QGVDVHPV-OH) as the compound, how does the “ID50 (concentration of peptide that inhibited binding of radiolabeled angiotensin II by 50%)” value (angiotensin II receptors) read?
A: 5,000 nM

From patent US4772684A, “Peptides affecting blood pressure regulation” (Triton Biosciences, Inc., priority 1988, dated 1988)
